Measurements from US20190100534A1, “Cephem Compounds with Latent Reactive Groups” (Gladius Pharmaceuticals, Inc., priority 2017, published 2019).

How the values were obtained:
ENC (ATCC NDM-1) = experiment: MIC determination; type: cell-based, Enterobacter cloacae; details: CAMH broth, 20 μM Apo-Transferrin, 37° C., 18 hours
Description: (§1) Sterile technique was used throughout these experiments. Suspensions of organisms were removed from storage (−80° C.) and partially thawed. Partially thawed organisms (1 μL) were inoculated into 3 mL sterile LB Broth in a sterile culture tube and capped, then cultured at 37° C. with shaking for 4-5 hours until the optical density at 600 nm (OD600) was greater than 0.1 on a single beam spectrophotometer.
(§2) The concentration of organisms was adjusted to 0.08-0.1 OD600 (0.5 McFarland units) by dilution with sterile cation-adjusted Meuller-Hinton (CAMH) broth. The suspensions were used within 30 minutes of preparation.
(§3) A stock solution was made of each test compound by measuring 6.4 mg of the compound on an analytical balance and dissolving it in DMSO (1 mL) to get a transparent solution. The solutions were stored at −20° C. and thawed prior to use.
(§4) Sterile CAMH broth (200 μL) containing 20 μM Apo-Transferrin was pipetted into the first row of 8 columns of a sterile, round-bottomed, transparent, 96-well microplate using an 8-channel pipette equipped with sterile tips. One hundred μL was pipetted into the wells of the remaining 11 rows.
(§5) With an 8-channel pipette equipped with sterile tips, 100 μL of the first row solution was transferred to the second row and mixed. The process was repeated for the second to third rows and continued through row 11. One hundred μL from row 11 was removed and discarded so that all 12 rows contained 100 μL. Row 12 contained no compound and rows 1-11 contained 64, 32, 16, 8, 4, 2, 1, 0.5, 0.25, 0.125, […] of a given compound.
(§6) Inoculant suspensions (0.5 μL) were added to the 12 wells of each column. The plates were then covered and incubated at 37° C. overnight for 18 hours.
(§7) For each organism the MIC was determined by identifying the transparent well with the lowest test compound concentration.

EC(KB2 CTX-M-15) = experiment: MIC determination; type: cell-based, Escherichia coli; details: Escherichia coli, CAMH broth, 20 μM Apo-Transferrin, 37° C., 18 hours, read-out: Minimum Inhibitory Concentrations, EC(KB2 CTX-M-15)
Description: as §1, §2, §3, §4, §5, §6, §7

EC(ATCC NDM-1) = experiment: MIC determination; type: cell-based, Escherichia coli; details: Escherichia coli, CAMH broth, 20 μM Apo-Transferrin, 37° C., 18 hours, read-out: Minimum Inhibitory Concentrations, EC(ATCC NDM-1)
Description: as §1, §2, §3, §4, §5, §6, §7

EC(KB1 CTX-M-15) = experiment: MIC determination; type: cell-based, Escherichia coli; details: Escherichia coli, CAMH broth, 20 μM Apo-Transferrin, 37° C., 18 hours, read-out: Minimum Inhibitory Concentrations, EC(KB1 CTX-M-15)
Description: as §1, §2, §3, §4, §5, §6, §7

EC(JMI OXA-48) = experiment: MIC determination; type: cell-based, Escherichia coli; details: Escherichia coli, CAMH broth, 20 μM Apo-Transferrin, 37° C., 18 hours, read-out: Minimum Inhibitory Concentrations, EC(JMI OXA-48)
Description: as §1, §2, §3, §4, §5, §6, §7

KP (ATCC KPC-3) = experiment: MIC determination; type: cell-based, Klebsiella pneumoniae; details: CAMH broth, 20 μM Apo-Transferrin, 37° C., 18 hours
Description: as §1, §2, §3, §4, §5, §6, §7

KP(JMI KPC-2) = experiment: MIC determination; type: cell-based, Klebsiella pneumoniae; details: CAMH broth, 20 μM Apo-Transferrin, 37° C., 18 hours
Description: as §1, §2, §3, §4, §5, §6, §7

KP (GJ 5659 TEM-26) = experiment: MIC determination; type: cell-based, Klebsiella pneumoniae; details: CAMH broth, 20 μM Apo-Transferrin, 37° C., 18 hours
Description: as §1, §2, §3, §4, §5, §6, §7

KP(GJ 5934 TEM-26) = experiment: MIC determination; type: cell-based, Klebsiella pneumoniae; details: CAMH broth, 20 μM Apo-Transferrin, 37° C., 18 hours
Description: as §1, §2, §3, §4, §5, §6, §7

KP(ATCC TEM-10/TEM-12) = type: cell-based, Klebsiella pneumoniae; details: CAMH broth, 20 μM Apo-Transferrin, 37° C., 18 hours
Description: as §1, §2, §3, §4, §5, §6, §7

C#CC[N+]1(Cc2ccc(C=CC3=C(C(=O)O)N4C(=O)[C@@H](NC(=O)/C(=N\OC(C)(C)C(=O)O)c5csc(N)n5)[C@H]4SC3)cc2)CCc2cc(O)c(O)cc2C1 (mixture of isomers) [Compound 446, 2-(4-((E/Z)-2-((6R,7R)-7-((Z)-2-(2-aminothiazol-4-yl)-2-(((2-carboxypropan-2-yl)oxy)imino)acetamido)-2-carboxy-8-oxo-5-thia-1-azabicyclo[4.2.0]oct-2-en-3-yl)vinyl)benzyl)-6,7-dihydroxy-2-(prop-2-yn-1-yl)-1,2,3,4-tetrahydroisoquinolin-2-ium]
Mimimum Inhibitory Concentrations, ENC (ATCC NDM-1) (ENC (ATCC NDM-1)): >64 microgram/mL | MIC (EC(KB2 CTX-M-15)): > 64 µg/mL | MIC (EC(ATCC NDM-1)): > 64 µg/mL | MIC (EC(KB1 CTX-M-15)): 64 µg/mL | MIC (EC(JMI OXA-48)): 16 µg/mL | Minimum Inhibitory Concentrations, KP (ATCC KPC-3) (KP (ATCC KPC-3)): 64 microgram/mL | Minimum Inhibitory Concentrations, KP(JMI KPC-2) (KP(JMI KPC-2)): 32 microgram/mL | Minimum Inhibitory Concentrations, KP (GJ 5659 TEM-26) (KP (GJ 5659 TEM-26)): 2 microgram/mL | Minimum Inhibitory Concentrations, KP(GJ 5934 TEM-26) (KP(GJ 5934 TEM-26)): 0.5 microgram/mL | Minimum Inhibitory Concentrations, KP(ATCC TEM-10/TEM-12) (KP(ATCC TEM-10/TEM-12)): 16 microgram/mL
